Each structure is given as a SMILES string. Where only a bound is given, the exact number is not on record here.

Test [1] concerns the target T1, Alpha-1B adrenergic receptor (Homo sapiens, UniProt P35368).
T1 sequence (P35368 whole entry): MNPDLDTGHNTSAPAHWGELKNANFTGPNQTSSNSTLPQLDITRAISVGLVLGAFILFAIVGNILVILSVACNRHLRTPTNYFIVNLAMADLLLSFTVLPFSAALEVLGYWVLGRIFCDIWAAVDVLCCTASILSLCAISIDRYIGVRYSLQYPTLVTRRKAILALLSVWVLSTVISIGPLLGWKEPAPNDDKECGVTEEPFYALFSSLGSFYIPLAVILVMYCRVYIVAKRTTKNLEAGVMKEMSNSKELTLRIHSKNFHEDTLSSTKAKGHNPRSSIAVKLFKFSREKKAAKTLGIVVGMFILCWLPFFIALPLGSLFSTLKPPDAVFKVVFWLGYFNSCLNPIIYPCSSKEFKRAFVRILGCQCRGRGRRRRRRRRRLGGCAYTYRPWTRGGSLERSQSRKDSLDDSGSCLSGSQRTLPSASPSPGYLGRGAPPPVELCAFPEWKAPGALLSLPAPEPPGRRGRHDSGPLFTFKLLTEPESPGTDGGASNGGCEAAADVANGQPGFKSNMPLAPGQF
The test can be described thus: Inhibition of binding of [125I]HEAT to cloned human alpha-1B adrenergic receptor.

Test [2] has as its target T2, Alpha-1D adrenergic receptor (Homo sapiens, UniProt P25100).
T2 sequence (P25100 whole entry): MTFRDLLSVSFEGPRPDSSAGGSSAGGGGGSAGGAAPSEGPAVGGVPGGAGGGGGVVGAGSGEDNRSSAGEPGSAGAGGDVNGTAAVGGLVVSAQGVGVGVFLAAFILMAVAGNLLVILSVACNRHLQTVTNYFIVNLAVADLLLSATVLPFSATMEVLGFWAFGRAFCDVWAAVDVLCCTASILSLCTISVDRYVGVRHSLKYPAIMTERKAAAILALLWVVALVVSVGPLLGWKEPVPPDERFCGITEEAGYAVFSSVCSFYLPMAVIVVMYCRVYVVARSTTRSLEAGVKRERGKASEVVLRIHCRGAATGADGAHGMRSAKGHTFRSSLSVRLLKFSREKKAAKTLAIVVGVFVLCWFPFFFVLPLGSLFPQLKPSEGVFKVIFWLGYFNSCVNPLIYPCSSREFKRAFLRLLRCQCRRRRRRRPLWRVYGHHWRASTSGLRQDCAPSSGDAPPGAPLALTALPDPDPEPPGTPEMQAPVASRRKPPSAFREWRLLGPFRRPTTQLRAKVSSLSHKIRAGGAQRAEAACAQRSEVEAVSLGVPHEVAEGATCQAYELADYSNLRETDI
Put plainly: Inhibition of binding of [125I]HEAT to cloned human alpha-1D adrenergic receptor.

Test [3] deals with T3, Alpha-1A adrenergic receptor (Homo sapiens, UniProt P35348).
T3 sequence (P35348 whole entry): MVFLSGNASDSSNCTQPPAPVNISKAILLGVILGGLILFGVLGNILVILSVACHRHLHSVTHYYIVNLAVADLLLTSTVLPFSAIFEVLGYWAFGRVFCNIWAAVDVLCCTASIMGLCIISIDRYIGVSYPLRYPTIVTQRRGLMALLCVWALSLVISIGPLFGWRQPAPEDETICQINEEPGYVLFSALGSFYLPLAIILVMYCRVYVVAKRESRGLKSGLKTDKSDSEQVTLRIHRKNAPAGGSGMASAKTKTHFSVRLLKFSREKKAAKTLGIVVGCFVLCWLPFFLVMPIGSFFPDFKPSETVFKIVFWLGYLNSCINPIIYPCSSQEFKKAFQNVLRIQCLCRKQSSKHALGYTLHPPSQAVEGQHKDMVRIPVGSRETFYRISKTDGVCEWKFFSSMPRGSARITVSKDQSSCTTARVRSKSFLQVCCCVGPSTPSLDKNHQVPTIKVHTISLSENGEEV
Put plainly: Inhibition of binding of [125I]HEAT to cloned human alpha-1A adrenergic receptor.

A word on the Ki: it is a measure of affinity in units of concentration, obtained from inhibition or displacement. Low readings indicate tighter binding, high ones weaker binding. `Cc1ccccc1C1(C#N)CCN(CCCNC(=O)C(c2ccc(Cl)cc2)C(C)C)CC1` (stereo not given): the Ki in test [1] turned out to be 870 nM; in test [2], 1300 nM; in test [3], 6.4 nM.

For the molecule `Cc1ccc(C(C(=O)NCCCN2CCC(c3ccccn3)CC2)c2ccc(C)cc2)cc1`, the Ki in test [1] was found to be 670 nM; in test [2], 3600 nM; in test [3] it was 27 nM.

In the case of `Cc1ccc(C(C(=O)NCCCN2CCC(c3ccccc3)CC2)c2ccc(C)cc2)cc1`, the Ki in test [1] was found to be 34 nM; in test [2], 230 nM; in test [3] it was 8.8 nM.

Regarding `N#CC1(c2ccccc2)CCN(CCCNC(=O)C(c2ccccc2)c2ccccc2)CC1`, the inhibitory constant (Ki) in test [1] came to 840 nM; in test [2] it was 3300 nM; in test [3], 28 nM.

On to `Cc1ccc(C(C(=O)NCCCN2CCC(C#N)(c3ccccc3C)CC2)C(C)C)cc1` (stereo not given), for which the figures for the Ki in test [1], in test [2] and in test [3] were 650 nM, 1100 nM and 7.4 nM, respectively.

Consider `Cc1ccc(C(C(=O)NCCCN2CCC(C#N)(c3ccccc3C)CC2)c2ccc(C)cc2)cc1`, for which the inhibition constant Ki in test [1] came out at 360 nM; in test [2], 1100 nM; in test [3], 1.3 nM.

`Cc1ccc(C(C(=O)NCCCN2CCN(c3ccccc3C)CC2)c2ccc(C)cc2)cc1`: the Ki in test [1] worked out at 6.6 nM; in test [2] it was 36 nM; in test [3], 1.1 nM.

Regarding `COC(=O)C1(c2ccccc2)CCN(CCCNC(=O)C(c2ccc(C)cc2)c2ccc(C)cc2)CC1`, the results for the inhibition constant (Ki) in test [1], in test [2] and in test [3] were 450 nM, 960 nM and 5.1 nM, respectively.

Take `Cc1ccccc1C1(C#N)CCN(CCCNC(=O)C(c2ccc(F)cc2)C(C)C)CC1` (stereo not given): the figures for the Ki in test [1], in test [2] and in test [3] were 960 nM, 2400 nM and 24 nM, respectively.

As for `COC(=O)C1(c2ccccc2)CCN(CCNC(=O)CCc2ccc([N+](=O)[O-])cc2)CC1`, the figures for the inhibition constant Ki in test [1], in test [2] and in test [3] were over 3000 nM, 1500 nM and 380 nM, respectively.

On to `COC(=O)C1(c2ccccc2)CCN(CCCNC(=O)CCc2ccc([N+](=O)[O-])cc2)CC1`, for which the values for the Ki in test [1], in test [2] and in test [3] were 910 nM, 1300 nM and 240 nM, respectively.

`COc1ccccc1C1(C#N)CCN(CCCNC(=O)C(c2ccc(C)cc2)c2ccc(C)cc2)CC1`: the Ki amounted to 570 nM in test [1], 710 nM in test [2] and 7.5 nM in test [3].

Take `Cc1ccccc1C1(C#N)CCN(CCCNC(=O)C(c2cccc(F)c2)C(C)C)CC1` (stereo not given): the Ki was determined as 680 nM in test [1], 2700 nM in test [2] and 3.4 nM in test [3].

Take `Cc1ccc(C(C(=O)NCCCN2CCC(C#N)(c3ccccc3C(F)(F)F)CC2)c2ccc(C)cc2)cc1`: the values for the inhibition constant (Ki) in test [1], in test [2] and in test [3] were 1900 nM, 3200 nM and 22 nM, respectively.

Take `Cc1ccc(C(C(=O)NCCCN2CCC(C#N)(c3ccccn3)CC2)c2ccc(C)cc2)cc1`: the values for the inhibition constant Ki in test [1], in test [2] and in test [3] were over 2000 nM, over 5000 nM and 25 nM, respectively.

As for `Cc1ccc(C(C(=O)NCCCN2CCN(c3ccccc3)CC2)c2ccc(C)cc2)cc1`, the figures for the Ki in test [1], in test [2] and in test [3] were 23 nM, 128 nM and 12 nM, respectively.

For `COC(=O)C1(c2ccccc2)CCN(CCCNC(=O)Cc2ccc([N+](=O)[O-])cc2)CC1`, the inhibition constant Ki in test [1] is 3300 nM; in test [2], 6300 nM; in test [3], 75 nM.

Regarding `COC(=O)C1(c2ccccc2)CCN(CCCNC(=O)Cc2ccc(C)cc2)CC1`, the inhibition constant Ki was over 3000 nM in test [1], 3400 nM in test [2] and 74 nM in test [3].

Take `Cc1ccc(C(C(=O)NCCCN2CCC(C#N)(c3ccccc3)CC2)c2ccc(C)cc2)cc1`: the results for the Ki in test [1], in test [2] and in test [3] were over 2000 nM, 1400 nM and 7.3 nM, respectively.

In the case of `Cc1ccc(C(C(=O)NCCCN2CCC(C(N)=O)(c3ccccc3)CC2)c2ccc(C)cc2)cc1`, the inhibition constant Ki in test [1] came out at 570 nM; in test [2], 3300 nM; in test [3], 570 nM.

Take `Cc1ccc(C(C(=O)NCCCN2CCC(C#N)(c3ccccc3Cl)CC2)c2ccc(C)cc2)cc1`: the Ki came out at 280 nM in test [1], 600 nM in test [2] and 0.99 nM in test [3].

For the molecule `COC(=O)C1(c2ccccc2)CCN(CCCNC(=O)C(C)c2ccc([N+](=O)[O-])cc2)CC1` (stereo not given), the Ki was 1700 nM in test [1], 1700 nM in test [2] and 47 nM in test [3].

On to `N#CC1(c2ccccc2)CCN(CCCNC(=O)C(c2ccccc2)C2CCCCC2)CC1` (racemic), for which the inhibition constant Ki is 1100 nM in test [1], 2500 nM in test [2] and 61 nM in test [3].

Regarding `N#CC1(c2ccccc2)CCN(CCCNC(=O)C(c2ccccc2)C2CCCC2)CC1` (racemic), the figures for the inhibition constant Ki in test [1], in test [2] and in test [3] were 2000 nM, 2300 nM and 50 nM, respectively.

`COC(=O)C1(c2ccccc2)CCN(CCCNC(=O)C2=C(C)N=C(C)/C(=C(/O)OC)C2c2ccc([N+](=O)[O-])cc2)CC1` (racemic): the affinity in test [2], expressed as Ki, was 1100 nM.

`CC(C)C(C(=O)NCCCN1CCC(C#N)(c2ccccc2)CC1)c1ccccc1` (racemic): the Ki in test [1] worked out at 1200 nM; in test [2], 2900 nM; in test [3], 72 nM.

`Cc1ccccc1C1(C#N)CCN(CCCNC(=O)C(c2ccc(F)c(F)c2)C(C)C)CC1` (single isomer, unassigned; (+)): the inhibitory constant (Ki) came to 1400 nM in test [1], 2100 nM in test [2] and 2 nM in test [3].

With `Cc1ccccc1C1(C#N)CCN(CCCNC(=O)C(c2ccc(F)c(F)c2)C(C)C)CC1` (single isomer, unassigned; (-)), the inhibition constant Ki in test [1] came out at 1200 nM; in test [2] it was 2600 nM; in test [3], 50 nM.

In the case of `Cc1ccccc1C1(C#N)CCN(CCCNC(=O)C(c2ccc(F)c(F)c2)C(C)C)CC1` (stereo in doubt; 28), the figures for the inhibitory constant (Ki) in test [1], in test [2] and in test [3] were 900 nM, 1600 nM and 2 nM, respectively.
